# Test system: VEGF
# Test: VEGF gene expression in THP1 cells by quantitative real-time PCR
# Type: cell-based, human
# Settings: 10 ng/mL (1.66 nM), 2 h, vs vehicle
substance,measurement,value
relaxin,increase in relative expression of VEGF mRNA,2.4 fold
